{"source": "ChEMBL document CHEMBL5230098", "about": "“The ups and downs of Poly(ADP-ribose) Polymerase-1 inhibitors in cancer therapy-Current progress and future direction” (Eur J Med Chem, 2020)", "key": {"[1]": {"target": "Poly [ADP-ribose] polymerase 1 (Homo sapiens, UniProt P09874)", "sequence (P09874 whole entry)": "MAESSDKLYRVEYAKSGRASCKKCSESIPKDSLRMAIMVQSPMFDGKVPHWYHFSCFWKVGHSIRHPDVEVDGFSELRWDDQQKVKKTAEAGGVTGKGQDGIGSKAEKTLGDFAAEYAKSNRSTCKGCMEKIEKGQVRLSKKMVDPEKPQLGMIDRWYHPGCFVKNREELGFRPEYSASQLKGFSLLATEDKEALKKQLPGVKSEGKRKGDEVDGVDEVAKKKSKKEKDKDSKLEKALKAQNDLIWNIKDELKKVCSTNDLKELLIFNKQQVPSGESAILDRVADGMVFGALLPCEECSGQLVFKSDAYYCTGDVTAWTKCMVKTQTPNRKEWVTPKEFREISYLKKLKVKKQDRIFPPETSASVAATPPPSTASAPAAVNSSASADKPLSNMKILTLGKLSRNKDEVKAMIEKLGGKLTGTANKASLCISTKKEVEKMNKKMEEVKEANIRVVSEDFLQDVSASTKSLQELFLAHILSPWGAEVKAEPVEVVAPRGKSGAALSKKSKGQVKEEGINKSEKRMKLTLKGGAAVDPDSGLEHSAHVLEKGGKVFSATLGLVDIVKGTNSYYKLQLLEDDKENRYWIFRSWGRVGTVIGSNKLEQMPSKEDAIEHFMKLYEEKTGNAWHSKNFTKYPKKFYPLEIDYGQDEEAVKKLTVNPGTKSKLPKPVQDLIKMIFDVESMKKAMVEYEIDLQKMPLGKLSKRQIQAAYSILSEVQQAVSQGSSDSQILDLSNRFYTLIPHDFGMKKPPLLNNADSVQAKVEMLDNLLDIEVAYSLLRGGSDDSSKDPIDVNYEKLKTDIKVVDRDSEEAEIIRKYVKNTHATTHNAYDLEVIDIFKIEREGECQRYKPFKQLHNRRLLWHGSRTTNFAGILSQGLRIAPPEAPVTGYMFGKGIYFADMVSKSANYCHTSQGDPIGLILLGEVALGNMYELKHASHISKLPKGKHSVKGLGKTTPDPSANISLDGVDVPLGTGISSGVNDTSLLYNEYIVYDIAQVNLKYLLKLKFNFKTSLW", "test": "Inhibition of PARP1 (unknown origin)"}, "[2]": {"test": "Aqueous solubility of compound", "format": "physicochemical"}, "[3]": {"test": "Oral bioavailability in Sprague-Dawley rat at 4 mg/kg administered as single dose measured for 24 hrs by HPLC/tandem mass spectrometry", "format": "ADME, organism-based", "conditions": "in vivo"}}, "data": [{"compound": "COc1cccc(C(N)=O)c1", "values": [{"measurement": "IC50", "setting": "[1]", "result": 30000, "unit": "nM"}]}, {"compound": "Cc1cccc2c1CCNC2=O", "values": [{"measurement": "IC50", "setting": "[1]", "result": 150, "unit": "nM"}]}, {"compound": "O=C1NCCc2c(OCCCCN3CCCCC3)cccc21", "values": [{"measurement": "IC50", "setting": "[1]", "result": 150, "unit": "nM"}]}, {"compound": "O=C1CCC(=O)N1c1cc(Cc2n[nH]c(=O)c3ccccc23)ccc1F", "values": [{"measurement": "Ki", "setting": "[1]", "result": 12, "unit": "nM"}]}, {"compound": "CNCc1ccc(-c2cc3cc(F)cc(C(N)=O)c3o2)cc1.Cl", "values": [{"measurement": "solubility", "setting": "[2]", "result": "> 35", "unit": "mg/mL"}]}, {"compound": "O=C(c1cc(Cc2n[nH]c(=O)c3ccccc23)ccc1F)N1CCn2nc(C(F)(F)F)nc2C1", "note": "[FLUZOPARIB]", "values": [{"measurement": "bioavailability", "setting": "[3]", "result": 35.8, "unit": "%"}]}]}
